From ChEMBL document CHEMBL4257573, “Synthesis, modification, and cytotoxic evaluation of 2,3-secotriterpenic β-ketoesters” (Bioorg Med Chem Lett, 2018)
Calls of active or inactive are those of the source. The rule behind the calls is not given here.

Columns and labels:
HEp-2 = assay: Cytotoxicity against human Hep2 cells assessed as reduction in cell viability after 72 hrs by MTT assay; type: functional, cell-based; conditions: HEp-2, 72 h
HCT-116 [1] = assay: Cytotoxicity against human HCT116 cells assessed as reduction in cell viability after 72 hrs by MTT assay; type: functional, cell-based; conditions: for IC50: HCT-116, 72 h
[2] = Cytotoxicity against human MS cells assessed as reduction in cell viability after 72 hrs by MTT assay; type: functional, cell-based
RD = assay: Cytotoxicity against human RD cells assessed as reduction in cell viability after 72 hrs by MTT assay; type: functional, cell-based
HEK293 = assay: Cytotoxicity against HEK293 cells assessed as reduction in cell viability after 72 hrs by MTT assay; type: cell-based; conditions: Homo sapiens, HEK293, 72 h
HCT-116 [3] = assay: Cytotoxicity against human HCT116 cells assessed as reduction in cell viability at 2 uM by MTT assay; type: functional, cell-based; conditions: TDE = time-dependent effect
A549 = assay: Cytotoxicity against human A549 cells assessed as reduction in cell viability after 72 hrs by MTT assay; type: functional, cell-based; conditions: A549, 72 h
MCF7 = assay: Cytotoxicity against human MCF7 cells assessed as reduction in cell viability after 72 hrs by MTT assay; type: functional, cell-based; conditions: MCF7, 72 h
HCT-116 [4] = assay: Cytotoxicity against human HCT116 cells assessed as reduction in cell viability at 3 to 6 uM by MTT assay; type: functional, cell-based; conditions: TDE = time-dependent effect
[5] = Selectivity index, ratio of IC50 for HEK293 cells to IC50 for human Hep2 cells; type: toxicity; conditions: HEK293 cells versus Hep2 cells, read-out: Ratio IC50
[6] = Selectivity index, ratio of IC50 for HEK293 cells to IC50 for human MS cells; type: toxicity; conditions: HEK293 cells versus MS cells, read-out: Ratio IC50
[7] = Selectivity index, ratio of IC50 for HEK293 cells to IC50 for human MCF7 cells; type: toxicity; conditions: HEK293 cells versus MCF7 cells, read-out: Ratio IC50
HCT-116 [8] = assay: Induction of apoptosis in human HCT116 cells assessed as increase in number of cells with condense nucleus at 3 uM after 18 hrs by Hoechst 33258 /rhodamine 123 staining based fluorescence inverted microscopic analysis; type: functional, cell-based
HCT-116 [9] = assay: Induction of mitochondrial membrane depolarization in human HCT116 cells at 3 uM after 18 hrs by Hoechst 33258 /rhodamine 123 staining based fluorescence inverted microscopic analysis; type: functional, cell-based
HCT-116 [10] = assay: Induction of apoptosis in human HCT116 cells assessed as increase in early apoptotic cells after 18 hrs by Annexin V/7-AAD staining based flow cytometric analysis; type: functional, cell-based
HCT-116 [11] = assay: Induction of apoptosis in human HCT116 cells assessed as decrease in viable cells after 18 hrs by Annexin V/7-AAD staining based flow cytometric analysis; type: functional, cell-based
HCT-116 [12] = assay: Induction of apoptosis in human HCT116 cells assessed as early apoptotic cells at 3 uM after 18 hrs by Annexin V/7-AAD staining based flow cytometric analysis (reference value: 5.84%); type: functional
HCT-116 [13] = assay: Induction of apoptosis in human HCT116 cells assessed as late apoptotic cells at 3 uM after 18 hrs by Annexin V/7-AAD staining based flow cytometric analysis (reference value: 2.12%); type: functional
HCT-116 [14] = assay: Induction of apoptosis in human HCT116 cells assessed as necrotic cells at 3 uM after 18 hrs by Annexin V/7-AAD staining based flow cytometric analysis (reference value: 0.62%); type: functional
HCT-116 [15] = assay: Induction of apoptosis in human HCT116 cells assessed as viable cells at 3 uM after 18 hrs by Annexin V/7-AAD staining based flow cytometric analysis (reference value: 91.42%); type: functional; conditions: HCT-116, 18 h, read-out: Activity
HCT-116 [16] = assay: Induction of apoptosis in human HCT116 cells assessed as early apoptotic cells at 6 uM after 18 hrs by Annexin V/7-AAD staining based flow cytometric analysis (reference value: 5.84%); type: functional
HCT-116 [17] = assay: Induction of apoptosis in human HCT116 cells assessed as late apoptotic cells at 6 uM after 18 hrs by Annexin V/7-AAD staining based flow cytometric analysis (reference value: 2.12%); type: functional
HCT-116 [18] = assay: Induction of apoptosis in human HCT116 cells assessed as necrotic cells at 6 uM after 18 hrs by Annexin V/7-AAD staining based flow cytometric analysis (reference value: 0.62%); type: functional
HCT-116 [19] = assay: Induction of apoptosis in human HCT116 cells assessed as viable cells at 6 uM after 18 hrs by Annexin V/7-AAD staining based flow cytometric analysis (reference value: 91.42%); type: functional; conditions: HCT-116, 18 h, read-out: Activity
HCT-116 [20] = assay: Cell cycle arrest in human HCT116 cells assessed as decrease in accumulation at G0/G1 phase after 18 hrs by DAPI staining-based flow cytometric analysis; type: functional
HCT-116 [21] = assay: Cell cycle arrest in human HCT116 cells assessed as accumulation at G0/G1 phase at 3 uM after 18 hrs by DAPI staining-based flow cytometric analysis (RVB = 47.72%); type: functional
HCT-116 [22] = assay: Cell cycle arrest in human HCT116 cells assessed as accumulation at G2/M phase at 3 uM after 18 hrs by DAPI staining-based flow cytometric analysis (RVB = 17.25%); type: functional
HCT-116 [23] = assay: Cell cycle arrest in human HCT116 cells assessed as accumulation at S phase at 3 uM after 18 hrs by DAPI staining-based flow cytometric analysis (RVB = 25.49%); type: functional
HCT-116 [24] = assay: Cell cycle arrest in human HCT116 cells assessed as accumulation at sub-G0 phase at 3 uM after 18 hrs by DAPI staining-based flow cytometric analysis (RVB = 8.55%); type: functional
HCT-116 [25] = assay: Cell cycle arrest in human HCT116 cells assessed as accumulation at G0/G1 phase at 6 uM after 18 hrs by DAPI staining-based flow cytometric analysis (RVB = 47.72%); type: functional
HCT-116 [26] = assay: Cell cycle arrest in human HCT116 cells assessed as accumulation at G2/M phase at 6 uM after 18 hrs by DAPI staining-based flow cytometric analysis (RVB = 17.25%); type: functional
HCT-116 [27] = assay: Cell cycle arrest in human HCT116 cells assessed as accumulation at S phase at 6 uM after 18 hrs by DAPI staining-based flow cytometric analysis (RVB = 25.49%); type: functional
HCT-116 [28] = assay: Cell cycle arrest in human HCT116 cells assessed as accumulation at sub-G0 phase at 6 uM after 18 hrs by DAPI staining-based flow cytometric analysis (RVB = 8.55%); type: functional
HCT-116 [29] = assay: Antimigratory activity in human HCT116 cells after 96 hrs by wound healing assay; type: functional, cell-based
HCT-116 [30] = assay: Induction of apoptosis in human HCT116 cells assessed as early apoptotic cells at 2 uM after 18 hrs by Annexin V/7-AAD staining based flow cytometric analysis (reference value: 5.84%); type: functional
HCT-116 [31] = assay: Induction of apoptosis in human HCT116 cells assessed as late apoptotic cells at 2 uM after 18 hrs by Annexin V/7-AAD staining based flow cytometric analysis (reference value: 2.12%); type: functional
HCT-116 [32] = assay: Induction of apoptosis in human HCT116 cells assessed as necrotic cells at 2 uM after 18 hrs by Annexin V/7-AAD staining based flow cytometric analysis (reference value: 0.62%); type: functional
HCT-116 [33] = assay: Induction of apoptosis in human HCT116 cells assessed as viable cells at 2 uM after 18 hrs by Annexin V/7-AAD staining based flow cytometric analysis (reference value: 91.42%); type: functional; conditions: HCT-116, 18 h, read-out: Activity
HCT-116 [34] = assay: Cell cycle arrest in human HCT116 cells assessed as accumulation at G0/G1 phase at 2 uM after 18 hrs by DAPI staining-based flow cytometric analysis (RVB = 47.72%); type: functional
HCT-116 [35] = assay: Cell cycle arrest in human HCT116 cells assessed as accumulation at G2/M phase at 2 uM after 18 hrs by DAPI staining-based flow cytometric analysis (RVB = 17.25%); type: functional
HCT-116 [36] = assay: Cell cycle arrest in human HCT116 cells assessed as accumulation at S phase at 2 uM after 18 hrs by DAPI staining-based flow cytometric analysis (RVB = 25.49%); type: functional
HCT-116 [37] = assay: Cell cycle arrest in human HCT116 cells assessed as accumulation at sub-G0 phase at 2 uM after 18 hrs by DAPI staining-based flow cytometric analysis (RVB = 8.55%); type: functional
HCT-116 [38] = assay: Antimigratory activity in human HCT116 cells at 2 uM after 96 hrs by wound healing assay; type: functional, cell-based

COc1cccc2c1C(=O)c1c(O)c3c(c(O)c1C2=O)C[C@@](O)(C(=O)CO)C[C@@H]3O[C@H]1C[C@H](N)[C@H](O)[C@H](C)O1 [DOXORUBICIN]
IC50 (HEp-2): 1.78 µM
Activity (HCT-116 [1]): Dose-dependent effect
IC50 [2]: 1290 nM
IC50 (RD): 1270 nM
IC50 (HEK293): 0.02 µM
Activity (HCT-116 [3]): Tde

C=C(C=O)[C@@H]1CC[C@]2(C(=O)OC)CC[C@]3(C)[C@H](CC[C@@H]4[C@@](C)(CC#N)[C@H](C(C)(C)C(=O)COC(C)=O)CC[C@]43C)[C@@H]12
IC50 (HEp-2): 12.2 µM
Activity (HCT-116 [1]): Dose-dependent effect
IC50 (HCT-116 [1]): 3.07 µM
IC50 [2]: 3610 nM
IC50 (RD): 3500 nM
IC50 (A549): 10.2 µM
IC50 (MCF7): 9.68 µM
Activity (HCT-116 [4]): Tde
IC50 (HEK293): 29.5 µM
selectivity ratio [5]: 2.42 to 9.61
selectivity ratio [6]: 2.42 to 9.61
selectivity ratio [7]: 2.42 to 9.61
Activity (HCT-116 [8]): Active
Activity (HCT-116 [9]): Active
Activity (HCT-116 [10]): Dose-dependent effect
Activity (HCT-116 [11]): Dose-dependent effect
Activity (HCT-116 [12]): 14.06%
Activity (HCT-116 [13]): 11.99%
Activity (HCT-116 [14]): 2.6%
viability at 3 µM (HCT-116 [15]): 71.3%
Activity (HCT-116 [16]): 27.07%
Activity (HCT-116 [17]): 11.2%
Activity (HCT-116 [18]): 3.21%
viability at 6 µM (HCT-116 [19]): 58.5%
Activity (HCT-116 [20]): Dose-dependent effect
Activity (HCT-116 [21]): 35.65%
Activity (HCT-116 [22]): 19.99%
Activity (HCT-116 [23]): 28.16%
Activity (HCT-116 [24]): 15.07%
Activity (HCT-116 [25]): 21.49%
Activity (HCT-116 [26]): 15.27%
Activity (HCT-116 [27]): 24.03%
Activity (HCT-116 [28]): 38.29%
Activity (HCT-116 [29]): Dose-dependent effect

CC[C@@]1(O)C(=O)OCc2c1cc1n(c2=O)Cc2cc3ccccc3nc2-1 [CAMPTOTHECIN]
Activity (HCT-116 [1]): Dose-dependent effect
IC50 [2]: 770 nM
IC50 (RD): 1720 nM
IC50 (A549): 1.31 µM
IC50 (MCF7): 0.04 µM
IC50 (HEK293): 1.61 µM
selectivity ratio [5]: 0.53 to 40.2
selectivity ratio [6]: 0.53 to 40.2
selectivity ratio [7]: 0.53 to 40.2
Activity (HCT-116 [30]): 5.73%
Activity (HCT-116 [31]): 7.33%
Activity (HCT-116 [32]): 5.08%
viability at 2 µM (HCT-116 [33]): 81.9%
Activity (HCT-116 [34]): 27.71%
Activity (HCT-116 [35]): 10.06%
Activity (HCT-116 [36]): 36.77%
Activity (HCT-116 [37]): 24.52%
Activity (HCT-116 [38]): Active
Activity (HCT-116 [3]): Tde

C=C(C=O)[C@@H]1CC[C@]2(C(=O)OC)CC[C@]3(C)[C@H](CC[C@@H]4[C@@](C)(CC#N)[C@H](C(C)(C)C(=O)COC(=O)c5cccnc5)CC[C@]43C)[C@@H]12
IC50 (HEp-2): 29.5 µM
IC50 (HCT-116 [1]): 7.03 µM
IC50 [2]: 8270 nM
IC50 (RD): 8980 nM
IC50 (A549): 40.3 µM
IC50 (MCF7): 35 µM
IC50 (HEK293): 59.4 µM
selectivity ratio [5]: 1.47 to 8.45
selectivity ratio [6]: 1.47 to 8.45
selectivity ratio [7]: 1.47 to 8.45
